molecular target: T1, human SLC6A19 and TMEM27 (Homo sapiens, UniProt Q695T7); assay: Radiolabelled (3H) leucine uptake in CHO cells with doxycycline-inducible expression of human SLC6A19 and TMEM27 (Example B-1); assay type: cell-based; conditions: CHO cells with doxycycline-inducible expression of human SLC6A19 and TMEM27, read-out: SLC6A19_Radioligand Uptake Assay IC50
T1 construct: expressed in transfected cells
T1 sequence (Q695T7 1-634): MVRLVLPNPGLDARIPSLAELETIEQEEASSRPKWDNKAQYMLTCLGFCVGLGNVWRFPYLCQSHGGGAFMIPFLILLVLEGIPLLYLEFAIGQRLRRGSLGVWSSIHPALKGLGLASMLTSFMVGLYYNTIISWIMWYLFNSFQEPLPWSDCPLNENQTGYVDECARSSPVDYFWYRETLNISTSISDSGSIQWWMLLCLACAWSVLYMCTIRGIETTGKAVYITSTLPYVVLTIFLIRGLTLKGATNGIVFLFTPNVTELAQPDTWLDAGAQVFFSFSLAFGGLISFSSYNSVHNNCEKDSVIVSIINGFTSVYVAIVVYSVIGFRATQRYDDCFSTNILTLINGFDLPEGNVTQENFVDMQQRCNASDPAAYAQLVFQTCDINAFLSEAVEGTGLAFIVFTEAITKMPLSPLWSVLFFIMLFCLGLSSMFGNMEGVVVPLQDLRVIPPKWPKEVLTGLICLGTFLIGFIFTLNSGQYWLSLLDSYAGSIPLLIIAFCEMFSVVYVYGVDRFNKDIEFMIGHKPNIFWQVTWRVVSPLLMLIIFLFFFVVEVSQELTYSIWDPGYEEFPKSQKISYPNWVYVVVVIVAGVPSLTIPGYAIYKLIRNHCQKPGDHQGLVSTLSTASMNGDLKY
T1 sequence (Q9HBJ8 15-222 partner): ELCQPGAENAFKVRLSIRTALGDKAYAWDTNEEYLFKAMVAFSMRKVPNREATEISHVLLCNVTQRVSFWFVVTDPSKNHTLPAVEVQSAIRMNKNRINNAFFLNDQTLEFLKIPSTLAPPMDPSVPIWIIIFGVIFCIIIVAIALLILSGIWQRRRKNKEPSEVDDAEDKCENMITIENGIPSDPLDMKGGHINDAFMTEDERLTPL
Outline: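 CHO cells were induced with doxycycline for 18 h at 37 °C, washed in HBSS, then exposed to compounds for 1 h: 8-point, 3-fold dilutions in duplicate, 0.5% DMSO final. Uptake measured by scintillation counting after 2 h shaking. Activity normalized with positive control as 0% and DMSO as 100%.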

Row | IC50 [nM] | SMILES
1 | 140 | Cc1cc(COc2cc3[nH]c(CNC(=O)[C@@H](C)O)cc3cc2Cl)on1 [Compound 256, (R)-N-((5-chloro-6-((3-methylisoxazol-5-yl)methoxy)-1H-indol-2-yl)methyl)-2-hydroxypropanamide]
2 | 154 | CC1(C(=O)NCc2cc3cc(Cl)c(SCc4ccon4)cc3[nH]2)CC1 [Compound 197, N-((5-chloro-6-((isoxazol-3-ylmethyl)thio)-1H-indol-2-yl)methyl)-1-methylcyclo propanecarboxamide]
3 | 164 | Cc1cc(COc2cc3[nH]c(CNC(=O)NC4CC4)cc3cc2Cl)on1 [Compound 636, 1-((5-chloro-6-((3-methylisoxazol-5-yl)methoxy)-1H-indol-2-yl)methyl)-3-cyclopropylurea]
4 | 336 | C[C@H]1CCN(C(=O)NCc2cc3cc(F)c(OCc4cscn4)cc3[nH]2)C1 [Compound 388, (S)-N-((5-fluoro-6-(thiazol-4-ylmethoxy)-1H-indol-2-yl)methyl)-3-methylpyrrolidine-1-carboxamide]
5 | 452 | CC1(C(=O)NCc2cc3cc(Cl)c(OCCc4cccnc4)cc3[nH]2)CC1 [Compound 331, N-((5-chloro-6-(2-(pyridin-3-yl)ethoxy)-1H-indol-2-yl)methyl)-1-methylcyclopropane-1-carboxamide]
6 | 134 | [2H]C([2H])([2H])c1cc(COc2cc3[nH]c(CNC(=O)C4(C)CC4)cc3cc2Cl)no1 [Compound 663, N-((5-chloro-6-((5-(methyl-d3)isoxazol-3-yl)methoxy)-1H-indol-2-yl)methyl)-1-methylcyclopropane-1-carboxamide]
7 | 199 | Cc1cc(COc2cc3[nH]c(CNC(=O)c4ccno4)cc3cc2Cl)on1 [Compound 522, N-((5-chloro-6-((3-methylisoxazol-5-yl)methoxy)-1H-indol-2-yl)methyl)isoxazole-5-carboxamide]
8 | 1240 | CC1(C(=O)NCc2cc3cc(F)c(OCc4cc(C(F)(F)F)on4)cc3[nH]2)CC1 [Compound 72, N-((5-fluoro-6-((5-(trifluoromethyl)isoxazol-3-yl)methoxy)-1H-indol-2-yl)methyl)-1-methylcyclopropane-1-carboxamide]
9 | 340 | O=C(NCc1cc2cc(Cl)c(OCc3cscn3)cc2[nH]1)C12CC(C1)C2 [Compound 552, N-((5-chloro-6-(thiazol-4-ylmethoxy)-1H-indol-2-yl)methyl)bicyclo[1.1.1]pentane-1-carboxamide]
10 | 355 | O=C(NCc1cc2cc(OC(F)(F)F)c(OCc3ccon3)cc2[nH]1)N1CCCC1 [Compound 420, N-((6-(isoxazol-3-ylmethoxy)-5-(trifluoromethoxy)-1H-indol-2-yl)methyl)pyrrolidine-1-carboxamide]
11 | 9880 | CC1(C(=O)NCc2cc3ccc(OCCC45CC(C4)C5)cc3[nH]2)CC1 [Compound 193, N-((6-(2-(bicyclo[1.1.1]pentan-1-yl)ethoxy)-1H-indol-2-yl)methyl)-1-methylcyclopropane-1-carboxamide]
12 | 654 | CC1(C(=O)NCc2cc3cc(C4CC4(F)F)c(OCc4cscn4)cc3[nH]2)CC1 (stereo not drawn) [Compound 657, N-((5-(2,2-difluorocyclopropyl)-6-(thiazol-4-ylmethoxy)-1H-indol-2-yl)methyl)-1-methylcyclopropane-1-carboxamide]
13 | 332 | C[C@@H]1CCN1C(=O)NCc1cc2cc(Cl)c(OCc3ccon3)cc2[nH]1 [Compound 363, (R)-N-((5-chloro-6-(isoxazol-3-ylmethoxy)-1H-indol-2-yl)methyl)-2-methylazetidine-1-carboxamide]
14 | 293 | CC1(C(=O)NCc2cc3cc(OC(F)(F)F)c(OCc4ccon4)cc3[nH]2)CC1 [Compound 508, N-((6-(isoxazol-3-ylmethoxy)-5-(trifluoromethoxy)-1H-indol-2-yl)methyl)-1-methylcyclopropane-1-carboxamide]
15 | 319 | O=C(NCc1cc2cc(F)c(OCc3cocn3)cc2[nH]1)N1CCC1 [Compound 358, N-((5-fluoro-6-(oxazol-4-ylmethoxy)-1H-indol-2-yl)methyl)azetidine-1-carboxamide]
